Assays:
[1] = Experiment 8: oil residues in fish fillet tissue, sobaity; design: species or system Sparidentex hasta; conditions: in vivo
Source text: (§1) Thyme oil consists mainly of thymol. On the other hand, oregano oil consists mainly of carvacrol (40-70%) and thymol, while cinnamon oil consists mainly of (65 to 75% of the oil) is cinnamaldehyde.

[2] = Experiment 8: oil residues in fish fillet tissue, sheam; design: species or system Acanthopagrus latus; conditions: in vivo
Source text: as §1

serum MDA (TBARS) [3] = assay: Serum TBARS assay, sobaity; type: in vivo, Sparidentex hasta
Source text: (§2) C. Thiobarbituric Acid Reactive Substances (TRARS) Assay.

serum MDA (TBARS) [4] = assay: Serum TBARS assay, sheam; type: in vivo, Acanthopagrus latus
Source text: as §2

Row | Molecule | residue in fillet tissue [1] [ppm/fish] | residue in fillet tissue [2] [ppm/fish] | MDA (serum MDA (TBARS) [3]) [nmol/mL] | Relative Activity (RA) in comparison to control serum (serum MDA (TBARS) [3]) | MDA (serum MDA (TBARS) [4]) [nmol/mL] | Relative Activity (RA) in comparison to control serum (serum MDA (TBARS) [4])
1 | cinnamon oil (Cinnamomum zeylanicum) | 0.52 | 0.17 |  |  |  | 
2 | Cc1ccc2ccccc2n1 [Quinaldene, quinaldine] |  |  | 0.0365 ± 0.003 | 79.27 | 0.0410 ± 0.002 | 89.13
